The nature of series [1]: Hydrophobicity: retention time during reverse phase HPLC. It counts as physicochemical. Particulars: Acquity CSH C18; pH 7.2 buffer/CH3CN gradient; 40° C. The source says: The retention time (RT) during reverse phase HPLC was taken as a measure of hydrophobicity of an N-terminally modified peptide or oligopeptide of the invention, where the connection is: The longer the RT, the more hydrophobic N-terminally modified peptide or oligopeptide. The following running conditions were applied during HPLC analysis:
Buffer B: 70% (v/v) aq. CH3CN

For series [2], the system named is Chymotrypsin. Put plainly: Inhibition of enzymatic degradation of a model GLP-1 (FRET substrate) by chymotrypsin. It counts as biochemical. Conditions: for pEC50: read-out: EC50 Chymotrypsin (0.001 mg/ml), 0.001 mg/ml chymotrypsin, 37° C., ± standard error if at least 3 measurements. Summed up: (§1)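 Initial-rate slopes of fluorescence rise (320 nm ex, 405 nm em), fitted over the linear early phase and averaged from duplicates, were plotted against inhibitor concentration and fitted logistically to give EC50. Reactions ran at 37° C in Dulbecco's PBS, with MCA/DNP GLP-1 FRET substrate added as 10 μl of 100 μM stock.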

For series [3], the system named is Trypsin. Put plainly: Inhibition of enzymatic degradation of a model GLP-1 (FRET substrate) by trypsin. Type of series: biochemical. Particulars: for pEC50: read-out: EC50 Trypsin (0.001 mg/ml), 0.001 mg/ml trypsin, 37° C. Summed up: as §1
Setting [4] is: compound 0.1 mM, buffer containing 8% DMSO.

pEC50: −log10 of the molar value. *: point of attachment. C14 diacid = O=C(O)CCCCCCCCCCCCC(=O)*; Lauroyl = CCCCCCCCCCCC(=O)*

For “N-hexadecanoyl-γGlu-OEG-Ala-Ala-Pro-Phe-OH [Example 134]”, in series [1], the “RT (retention time during reverse phase HPLC as a measure of hydrophobicity)” value (“RT” below) is 7 min. The pEC50 was 4.32 in series [2] and 4.34 in series [3].

With “N-dodecanoyl-βAla-Ala-Pro-Phe-OH [Example 8]”, the “RT” value in series [1] is 6.13 min. Further, the “Slope of the initial increase in fluorescence obtained during incubation with 0.001 mg/ml Chymotrypsin” value in series [2] (compound 1 mM) is on record as 0.03. For the same substance, in series [3] (compound 1 mM), the “Slope of the initial increase in fluorescence obtained during incubation with 0.001 mg/ml Trypsin” value worked out at 0.70.

With “N-dodecanoyl-γGlu-Ala-Ala-Pro-Tyr-OH [Example 97]”, in series [1], the “RT” value is given as 3.79 min. The “Slope of the initial increase in fluorescence obtained during incubation with 0.001 mg/ml Chymotrypsin” value in series [2] (setting [4]) came to 0.55. Moreover, in series [3] (setting [4]), the “Slope of the initial increase in fluorescence obtained during incubation with 0.001 mg/ml Trypsin” value was 1.31.

As to “N-dodecanoyl-Asp-Ala-Ala-Pro-Tyr-OH [Example 95]”, in series [1], the “RT” value is given as 3.92 min. Further, the “Slope of the initial increase in fluorescence obtained during incubation with 0.001 mg/ml Chymotrypsin” value in series [2] (setting [4]) turned out to be 0.10. Besides, in series [3] (setting [4]), the “Slope of the initial increase in fluorescence obtained during incubation with 0.001 mg/ml Trypsin” value is reported as 1.82.

For “N-dodecanoyl-Ala-Asn-Pro-Tyr-OH (Lauroyl-ANPY-OH; SMILES CCCCCCCCCCCC(=O)N[C@@H](C)C(=O)N[C@@H](CC(N)=O)C(=O)N1CCC[C@H]1C(=O)N[C@@H](Cc1ccc(O)cc1)C(=O)O) [Example 74]”, the “RT” value in series [1] amounted to 5.27 min. Further, the “Slope of the initial increase in fluorescence obtained during incubation with 0.001 mg/ml Chymotrypsin” value in series [2] (setting [4]) worked out at 1.66. For the same substance, in series [3] (setting [4]), the “Slope of the initial increase in fluorescence obtained during incubation with 0.001 mg/ml Trypsin” value is reported as 2.27.

Take “N-dodecanoyl-Ser-Pro-Tyr-OH [Example 107]”: the “RT” value in series [1] is 5.58 min. Moreover, the “Slope of the initial increase in fluorescence obtained during incubation with 0.001 mg/ml Chymotrypsin” value in series [2] (setting [4]) worked out at 0.89. Moreover, the “Slope of the initial increase in fluorescence obtained during incubation with 0.001 mg/ml Trypsin” value in series [3] (setting [4]) turned out to be 1.99.

Turning to “N-dodecanoyl-Ala-Ala-Ala-Tyr-OH (Lauroyl-AAAY-OH; SMILES CCCCCCCCCCCC(=O)N[C@@H](C)C(=O)N[C@@H](C)C(=O)N[C@@H](C)C(=O)N[C@@H](Cc1ccc(O)cc1)C(=O)O) [Example 57]”, in series [1], the “RT” value turned out to be 5.73 min. For the same substance, the “Slope of the initial increase in fluorescence obtained during incubation with 0.001 mg/ml Chymotrypsin” value in series [2] (setting [4]) is given as 1.65. In series [3] (setting [4]), the “Slope of the initial increase in fluorescence obtained during incubation with 0.001 mg/ml Trypsin” value was found to be 1.59.

As for “N-dodecanoyl-OEG-OEG-DPhe-OEG-OH [Example 131]”, the “RT” value in series [1] is 6.21 min. The “Slope of the initial increase in fluorescence obtained during incubation with 0.001 mg/ml Chymotrypsin” value in series [2] (compound 1 mM) is 0.53. For the same substance, the “Slope of the initial increase in fluorescence obtained during incubation with 0.001 mg/ml Trypsin” value in series [3] (compound 1 mM) is 0.62.

For “N-dodecanoyl-γGlu-OEG-Pro-Arg-OH [Example 127]”, the “RT” value in series [1] came out at 3.67 min. Moreover, in series [2] (compound 1 mM), the “Slope of the initial increase in fluorescence obtained during incubation with 0.001 mg/ml Chymotrypsin” value is given as 0.62. In series [3] (compound 1 mM), the “Slope of the initial increase in fluorescence obtained during incubation with 0.001 mg/ml Trypsin” value is reported as 0.72.

On to “N-dodecanoyl-Met-Ala-Pro-Tyr-OH (Lauroyl-MAPY-OH; SMILES CCCCCCCCCCCC(=O)N[C@@H](CCSC)C(=O)N[C@@H](C)C(=O)N1CCC[C@H]1C(=O)N[C@@H](Cc1ccc(O)cc1)C(=O)O) [Example 47]”, for which the “RT” value in series [1] turned out to be 7.09 min. The “Slope of the initial increase in fluorescence obtained during incubation with 0.001 mg/ml Chymotrypsin” value in series [2] (setting [4]) worked out at 0.48. Also, the “Slope of the initial increase in fluorescence obtained during incubation with 0.001 mg/ml Trypsin” value in series [3] (setting [4]) is 1.77.

Consider “N-dodecanoyl-Gly-Pro-Tyr-OH [Example 118]”, for which the “RT” value in series [1] was found to be 5.35 min. In addition, in series [2] (setting [4]), the “Slope of the initial increase in fluorescence obtained during incubation with 0.001 mg/ml Chymotrypsin” value turned out to be 1.94. The “Slope of the initial increase in fluorescence obtained during incubation with 0.001 mg/ml Trypsin” value in series [3] (setting [4]) is given as 1.84.

With “N-tetradecandioyl-Ala-Ala-Pro-Phe-OH ({C14 diacid}-AAPF-OH) [Example 16]”, in series [1], the “RT” value is 3.11 min. Moreover, the “Slope of the initial increase in fluorescence obtained during incubation with 0.001 mg/ml Chymotrypsin” value in series [2] (compound 1 mM) is 0.14. Also, in series [3] (compound 1 mM), the “Slope of the initial increase in fluorescence obtained during incubation with 0.001 mg/ml Trypsin” value is 3.23.

“N-dodecanoyl-OEG-OEG-DPhe-OH [Example 129]”: the “RT” value in series [1] is on record as 6.34 min. The “Slope of the initial increase in fluorescence obtained during incubation with 0.001 mg/ml Chymotrypsin” value in series [2] (compound 1 mM) is 0.16. In addition, the results for the pEC50 in series [2] and in series [3] were 3.47 and 3.41, respectively. Further, the “Slope of the initial increase in fluorescence obtained during incubation with 0.001 mg/ml Trypsin” value in series [3] (compound 1 mM) amounted to 0.38.

Turning to “N-dodecanoyl-Ala-Gly-Pro-Tyr-OH (Lauroyl-AGPY-OH; SMILES CCCCCCCCCCCC(=O)N[C@@H](C)C(=O)NCC(=O)N1CCC[C@H]1C(=O)N[C@@H](Cc1ccc(O)cc1)C(=O)O) [Example 78]”, the “RT” value in series [1] was determined as 5.59 min. The “Slope of the initial increase in fluorescence obtained during incubation with 0.001 mg/ml Chymotrypsin” value in series [2] (setting [4]) worked out at 1.03. Also, the “Slope of the initial increase in fluorescence obtained during incubation with 0.001 mg/ml Trypsin” value in series [3] (setting [4]) came to 1.87.

On to “N-dodecanoyl-Glu-Ala-Pro-Tyr-OH (Lauroyl-EAPY-OH; SMILES CCCCCCCCCCCC(=O)N[C@@H](CCC(=O)O)C(=O)N[C@@H](C)C(=O)N1CCC[C@H]1C(=O)N[C@@H](Cc1ccc(O)cc1)C(=O)O) [Example 105]”, for which the “RT” value in series [1] is given as 3.91 min. Besides, the “Slope of the initial increase in fluorescence obtained during incubation with 0.001 mg/ml Chymotrypsin” value in series [2] (setting [4]) was determined as 1.31. For the same substance, the “Slope of the initial increase in fluorescence obtained during incubation with 0.001 mg/ml Trypsin” value in series [3] (setting [4]) stood at 1.56.

Turning to “N-dodecanoyl-γGlu-Pro-Tyr-OH [Example 100]”, the “RT” value in series [1] is 3.9 min. In addition, the “Slope of the initial increase in fluorescence obtained during incubation with 0.001 mg/ml Chymotrypsin” value in series [2] (setting [4]) came to 1.75. Also, in series [3] (setting [4]), the “Slope of the initial increase in fluorescence obtained during incubation with 0.001 mg/ml Trypsin” value is listed as 1.69.

In the case of “N-dodecanoyl-Pro-Ala-Ala-Pro-Tyr-OH [Example 48]”, in series [1], the “RT” value amounted to 6.2 min. The “Slope of the initial increase in fluorescence obtained during incubation with 0.001 mg/ml Chymotrypsin” value in series [2] (setting [4]) is reported as 0.07. Further, the “Slope of the initial increase in fluorescence obtained during incubation with 0.001 mg/ml Trypsin” value in series [3] (setting [4]) is 1.55.

For “N-dodecanoyl-γGlu-Ala-Ala-Pro-Phe-OH [Example 12]”, the “RT” value in series [1] is 4.04 min. The “Slope of the initial increase in fluorescence obtained during incubation with 0.001 mg/ml Chymotrypsin” value in series [2] (compound 1 mM) is recorded as 0.76. For the same substance, the “Slope of the initial increase in fluorescence obtained during incubation with 0.001 mg/ml Trypsin” value in series [3] (compound 1 mM) was 0.30.

As for “N-dodecanoyl-Gln-Ala-Ala-Pro-Tyr-OH [Example 102]”, in series [1], the “RT” value was found to be 4.82 min. Further, the “Slope of the initial increase in fluorescence obtained during incubation with 0.001 mg/ml Chymotrypsin” value in series [2] (setting [4]) was found to be 0.14. Moreover, the “Slope of the initial increase in fluorescence obtained during incubation with 0.001 mg/ml Trypsin” value in series [3] (setting [4]) is reported as 1.66.

Turning to “N-dodecanoyl-His-Ala-Pro-Tyr-OH (Lauroyl-HAPY-OH; SMILES CCCCCCCCCCCC(=O)N[C@@H](Cc1c[nH]cn1)C(=O)N[C@@H](C)C(=O)N1CCC[C@H]1C(=O)N[C@@H](Cc1ccc(O)cc1)C(=O)O) [Example 39]”, in series [1], the “RT” value worked out at 5.08 min. In addition, in series [2] (setting [4]), the “Slope of the initial increase in fluorescence obtained during incubation with 0.001 mg/ml Chymotrypsin” value stood at 0.27. For the same substance, the “Slope of the initial increase in fluorescence obtained during incubation with 0.001 mg/ml Trypsin” value in series [3] (setting [4]) was found to be 1.84.

The values above are taken from patent publication US20150038435A1, “N-TERMINALLY MODIFIED OLIGOPEPTIDES AND USES THEREOF” (Novo Nordisk A/S, priority 2012, published 2015).
